For experiment [1], the target named is 5-hydroxytryptamine receptor 2B (Homo sapiens, UniProt P41595). The experiment is described as follows: Displacement of [3H]LSD from human 5-HT2B receptor expressed in HEK cells by radioligand binding assay. It counts as cell-based.
In the next experiment the target is Mu-type opioid receptor (Homo sapiens, UniProt P35372). The experiment is described as follows: Displacement of [3H]DAMGO from human mu opioid receptor expressed in HEK cells by radioligand binding assay. Format: cell-based. (Loss of bound radioactivity is the signal in a displacement assay; it reports binding, not function.)
In a further experiment the target is Histamine H2 receptor (Homo sapiens, UniProt P25021). In words: Binding affinity to human histamine 2 receptor expressed in HEK cells by radioligand binding assay. Format: cell-based.
For the next experiment, the target named is T1, D(4) dopamine receptor (Homo sapiens, UniProt P21917).
T1 sequence (P21917 whole entry): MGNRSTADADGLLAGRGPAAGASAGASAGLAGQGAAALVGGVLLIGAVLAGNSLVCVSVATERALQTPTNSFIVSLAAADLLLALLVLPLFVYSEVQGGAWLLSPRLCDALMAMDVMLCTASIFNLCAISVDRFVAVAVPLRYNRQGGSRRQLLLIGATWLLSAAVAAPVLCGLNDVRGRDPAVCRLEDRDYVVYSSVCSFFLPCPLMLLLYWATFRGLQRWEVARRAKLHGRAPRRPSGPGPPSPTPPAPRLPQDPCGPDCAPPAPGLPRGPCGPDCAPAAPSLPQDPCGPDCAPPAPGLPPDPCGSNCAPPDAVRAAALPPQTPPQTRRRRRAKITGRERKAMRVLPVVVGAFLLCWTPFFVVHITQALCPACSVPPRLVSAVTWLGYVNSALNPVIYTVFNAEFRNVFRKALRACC
The experiment is described as follows: Displacement of [3H]N-methylspiperone from human D4 receptor by radioligand binding assay.

Experiment [2] addresses Kappa-type opioid receptor (Homo sapiens, UniProt P41145). In words: Displacement of [3H]U69593 from human kappa opioid receptor expressed in HEK cells by radioligand binding assay. It counts as cell-based.
The target in experiment [3] is T2, Sigma intracellular receptor 2 (Rattus norvegicus, UniProt Q5U3Y7).
T2 sequence (Q5U3Y7 whole entry): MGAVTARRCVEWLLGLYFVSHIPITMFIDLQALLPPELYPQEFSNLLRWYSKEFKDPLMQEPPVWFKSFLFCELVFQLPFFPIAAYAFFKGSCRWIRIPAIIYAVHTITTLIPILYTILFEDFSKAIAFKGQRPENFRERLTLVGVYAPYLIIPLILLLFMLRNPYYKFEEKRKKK
The experiment is described as follows: Displacement of [3H]DTG from sigma-2 receptor in rat PC12 cells by radioligand binding assay. Format: cell-based.

For experiment [4], the target named is Sigma non-opioid intracellular receptor 1 (Cavia porcellus, UniProt Q60492). The experiment is described as follows: Displacement of [3H]Pentazocine from guinea pig sigma-1 receptor by radioligand binding assay.
Experiment [5] concerns the target Sodium-dependent dopamine transporter (Homo sapiens, UniProt Q01959). The experiment is described as follows: Displacement of [3H]WIN35428 from human DAT receptor expressed in HEK cells by radioligand binding assay. Format: cell-based.
Experiment [6] concerns the target T3, Alpha-2A adrenergic receptor (Homo sapiens, UniProt P08913).
T3 sequence (P08913 whole entry): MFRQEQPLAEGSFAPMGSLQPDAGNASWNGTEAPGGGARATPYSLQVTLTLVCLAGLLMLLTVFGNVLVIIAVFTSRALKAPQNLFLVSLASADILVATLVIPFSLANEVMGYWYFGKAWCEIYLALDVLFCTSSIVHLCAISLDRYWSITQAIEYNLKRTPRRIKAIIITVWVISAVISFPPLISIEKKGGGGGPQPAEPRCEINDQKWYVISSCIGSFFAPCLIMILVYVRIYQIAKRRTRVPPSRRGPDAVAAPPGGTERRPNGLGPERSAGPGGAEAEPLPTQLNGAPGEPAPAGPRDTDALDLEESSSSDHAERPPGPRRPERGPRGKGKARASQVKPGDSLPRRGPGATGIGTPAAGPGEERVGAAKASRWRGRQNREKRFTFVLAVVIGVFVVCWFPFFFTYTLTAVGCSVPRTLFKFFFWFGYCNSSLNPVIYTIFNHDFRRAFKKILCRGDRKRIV
The experiment is described as follows: Displacement of […] from human adrenergic alpha 2A receptor expressed in MDCK cells by radioligand binding assay. Format: cell-based.

Experiment [7] has as its target 5-hydroxytryptamine receptor 7 (Homo sapiens, UniProt P34969). In words: Displacement of [3H]LSD from human 5-HT7 receptor expressed in HEK cells by radioligand binding assay. Format: cell-based.

Mu-type opioid receptor, sequence (P35372 whole entry): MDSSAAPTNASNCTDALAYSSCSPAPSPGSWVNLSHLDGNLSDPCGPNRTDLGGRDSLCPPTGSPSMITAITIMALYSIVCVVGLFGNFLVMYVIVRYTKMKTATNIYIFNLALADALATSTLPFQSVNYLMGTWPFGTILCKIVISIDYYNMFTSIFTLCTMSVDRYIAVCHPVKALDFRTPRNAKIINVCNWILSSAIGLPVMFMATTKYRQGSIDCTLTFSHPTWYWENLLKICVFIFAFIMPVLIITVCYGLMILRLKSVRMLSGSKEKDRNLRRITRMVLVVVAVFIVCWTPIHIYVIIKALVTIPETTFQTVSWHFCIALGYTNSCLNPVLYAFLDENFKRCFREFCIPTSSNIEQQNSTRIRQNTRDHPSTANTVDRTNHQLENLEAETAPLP
5-hydroxytryptamine receptor 2B, sequence (P41595 whole entry): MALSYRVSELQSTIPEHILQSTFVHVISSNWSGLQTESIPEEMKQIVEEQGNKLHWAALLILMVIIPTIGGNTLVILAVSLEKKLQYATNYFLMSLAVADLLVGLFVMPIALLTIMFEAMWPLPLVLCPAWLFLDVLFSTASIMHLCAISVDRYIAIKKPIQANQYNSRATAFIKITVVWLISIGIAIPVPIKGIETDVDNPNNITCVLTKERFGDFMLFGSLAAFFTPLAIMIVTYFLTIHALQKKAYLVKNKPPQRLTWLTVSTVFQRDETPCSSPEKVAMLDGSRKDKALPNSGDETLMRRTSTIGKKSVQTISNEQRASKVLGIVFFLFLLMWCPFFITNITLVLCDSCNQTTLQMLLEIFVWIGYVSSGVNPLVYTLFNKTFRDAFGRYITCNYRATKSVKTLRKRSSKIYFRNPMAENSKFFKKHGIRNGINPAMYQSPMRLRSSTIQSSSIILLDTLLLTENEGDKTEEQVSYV
Histamine H2 receptor, sequence (P25021 whole entry): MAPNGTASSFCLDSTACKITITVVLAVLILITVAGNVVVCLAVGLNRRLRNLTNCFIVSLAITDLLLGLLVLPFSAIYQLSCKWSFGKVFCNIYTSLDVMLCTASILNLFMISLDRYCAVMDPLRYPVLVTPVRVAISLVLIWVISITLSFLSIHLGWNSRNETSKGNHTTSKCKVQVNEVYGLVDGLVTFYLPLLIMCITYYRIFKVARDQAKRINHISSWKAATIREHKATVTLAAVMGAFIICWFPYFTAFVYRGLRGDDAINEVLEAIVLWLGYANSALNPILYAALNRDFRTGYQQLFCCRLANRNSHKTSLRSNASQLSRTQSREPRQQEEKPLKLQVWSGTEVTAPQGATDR
Sodium-dependent dopamine transporter, sequence (Q01959 whole entry): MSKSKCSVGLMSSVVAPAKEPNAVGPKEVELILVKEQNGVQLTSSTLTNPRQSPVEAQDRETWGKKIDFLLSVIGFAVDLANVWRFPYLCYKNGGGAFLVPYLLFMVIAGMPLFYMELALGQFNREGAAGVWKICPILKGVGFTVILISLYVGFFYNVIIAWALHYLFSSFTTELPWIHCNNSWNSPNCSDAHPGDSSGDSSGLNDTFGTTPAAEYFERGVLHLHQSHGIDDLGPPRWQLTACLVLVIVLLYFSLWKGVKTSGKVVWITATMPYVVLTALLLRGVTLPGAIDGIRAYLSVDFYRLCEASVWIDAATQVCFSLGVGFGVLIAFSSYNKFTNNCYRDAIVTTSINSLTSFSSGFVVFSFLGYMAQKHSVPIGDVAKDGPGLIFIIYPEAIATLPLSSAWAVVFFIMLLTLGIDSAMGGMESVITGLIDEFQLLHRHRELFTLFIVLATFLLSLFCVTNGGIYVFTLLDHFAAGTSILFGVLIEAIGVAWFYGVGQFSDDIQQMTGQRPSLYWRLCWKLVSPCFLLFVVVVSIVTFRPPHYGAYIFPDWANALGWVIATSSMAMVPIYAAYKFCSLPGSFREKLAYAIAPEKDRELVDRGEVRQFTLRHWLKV
Sigma non-opioid intracellular receptor 1, sequence (Q60492 whole entry): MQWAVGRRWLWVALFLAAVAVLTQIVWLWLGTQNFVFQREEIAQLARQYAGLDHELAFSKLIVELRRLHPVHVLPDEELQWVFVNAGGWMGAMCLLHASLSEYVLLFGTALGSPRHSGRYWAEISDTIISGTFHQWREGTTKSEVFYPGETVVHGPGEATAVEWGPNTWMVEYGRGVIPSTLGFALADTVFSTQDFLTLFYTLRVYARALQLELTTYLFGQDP
5-hydroxytryptamine receptor 7, sequence (P34969 whole entry): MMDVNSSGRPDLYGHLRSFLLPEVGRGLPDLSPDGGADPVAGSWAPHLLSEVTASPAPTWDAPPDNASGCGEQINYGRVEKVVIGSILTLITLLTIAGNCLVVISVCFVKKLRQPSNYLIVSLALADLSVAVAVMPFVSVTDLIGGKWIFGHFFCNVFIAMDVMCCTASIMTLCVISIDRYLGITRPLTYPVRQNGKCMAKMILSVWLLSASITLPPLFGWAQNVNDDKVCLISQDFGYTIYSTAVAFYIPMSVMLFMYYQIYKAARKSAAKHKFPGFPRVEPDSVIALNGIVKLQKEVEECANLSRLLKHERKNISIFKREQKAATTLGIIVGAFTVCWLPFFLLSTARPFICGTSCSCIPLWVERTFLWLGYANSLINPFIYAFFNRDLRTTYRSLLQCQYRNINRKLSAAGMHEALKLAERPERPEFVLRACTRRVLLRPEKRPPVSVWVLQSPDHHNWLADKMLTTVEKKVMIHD
Kappa-type opioid receptor, sequence (P41145 whole entry): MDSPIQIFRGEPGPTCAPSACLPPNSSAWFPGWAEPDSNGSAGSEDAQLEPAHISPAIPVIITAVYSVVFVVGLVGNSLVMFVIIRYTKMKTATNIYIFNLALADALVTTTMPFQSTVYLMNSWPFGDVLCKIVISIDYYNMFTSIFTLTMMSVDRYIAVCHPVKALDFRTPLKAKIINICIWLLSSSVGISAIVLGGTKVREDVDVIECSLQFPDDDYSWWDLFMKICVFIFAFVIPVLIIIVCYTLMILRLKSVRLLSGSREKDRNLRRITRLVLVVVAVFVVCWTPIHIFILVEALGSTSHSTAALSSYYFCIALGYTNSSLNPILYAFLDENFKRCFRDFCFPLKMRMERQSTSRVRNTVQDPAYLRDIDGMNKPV

Take `Cc1cccc(C)c1N1C(=O)CNC2(CCN(C)CC2)C1=O`: the Ki in experiment [1] worked out at 742 nM; at Mu-type opioid receptor it was 10000 nM.

As for `CC1=NC2(CCN(C)CC2)C(=O)N(c2c(C)cccc2C)C1=O`, the Ki in experiment [1] came out at 231 nM; at Histamine H2 receptor, 823 nM; on D(4) dopamine receptor it was 1280 nM; in [2], 1710 nM; in experiment [3], 696 nM; in experiment [4], 8.6 nM. Moreover, the Ki in experiment [5] is 2560 nM; in [6] it was 3360 nM; in [7], 2760 nM.

For `Cc1cccc(C)c1N1C(=O)[C@H](CO)NC2(CCN(C)CC2)C1=O`, the figures for the Ki (in experiment [1]; at Mu-type opioid receptor) were 2050 nM and 1630 nM, respectively.

For `Cc1cccc(C)c1N1C(=O)[C@H](CC2CNc3ccccc32)NC2(CCN(C)CC2)C1=O` (stereo partly specified), the Ki stood at 840 nM in experiment [1], 546 nM on Histamine H2 receptor and 993 nM on Mu-type opioid receptor.

The term Ki denotes a measure of affinity in units of concentration, obtained from inhibition or displacement.
